The subject of assay [1] is rats having hyperuricemia induced by potassium oxonate. Put plainly: Serum uric acid content of rats having hyperuricemia induced by potassium oxonate (tungstic acid method). Type of assay: in vivo, rat. To be noted: allopurinol group 50 mg·kg^−1; p<0.01; day not given. The text has this:
(§1) 180 SD rats (SPF grade, male, 200±20 (g)) were provided by Laboratory Animals Centre, Guangzhou University of Chinese Medicine (License Number: SCXK(Yue)2013-0020). Reagents: allopurinol tablets (Guangdong P.D. Pharmaceutical Co., Ltd., Production batch No. 20130302); potassium oxonate (Shandong Zhongke Taidou Chemical Co., Ltd., Batch No. 120901); sodium carboxymethyl cellulose (Shanghai Celluloid Factory, Product Standard No. GB2760); uric acid assay kit (NanJing Jiancheng Bioengineering Institute, Production batch No. 20130529).
(§2) Animal grouping and modeling: 165 normal healthy SD male rats were obtained and randomly divided into normal control group (15 rats) and model group (150 rats). […] Those rats having a uric acid content of greater than 110 μmol·L^−1 were determined to be successful models. […] On 10th and 20th day after treatment with the above-described peptide samples, 50 min after the last administration, the rats were anaesthetized with 3% pentobarbitol sodium (i.p., 30 mg·kg^−1), and the blood (0.5 ml) was collected from conjunctiva and the serum uric acid content was determined. On 30th day after treatment with antigout peptides, the rats were anaesthetized with 3% pentobarbitol sodium, and 5 ml of blood was collected from coeliac artery and the content of serum creatinine and urea nitrogen were determined at the same time in addition to the serum uric acid content. […]

Assay [2] shares this test system. Put plainly: Serum creatinine content of rats having hyperuricemia induced by potassium oxonate (picric acid method). Type of assay: in vivo, rat. The note with it: administration for 30 d, extracts 200 mg·kg^−1, allopurinol 50 mg·kg^−1, intragastric, x ± s.
From the text: as §1, §2

The structures appear in SMILES notation. Marks after values point to notes of the source that are not given here.

Consider `Oc1ncnc2[nH]ncc12` [Allopurinol, allopurinol], for which the “Effect on serum uric acid content versus model group (in words)” value in assay [1] is given as “very significant effect in the reduction of the serum uric acid”. Further, in assay [2], the “Creatinine (μmol/L)” value was 52.9 ± 10.8^b μmol/L.
